Laboratory results as given in PMC4830977 (Scientific Reports, 2016).
Several values for one entry are separate records, joined by “and”; a condition that tells them apart may be missing. Equal values may be shown once. Read-outs that look alike come from different tables or passages of the source.

Experiments:
[1] = tested on: α2δ-1-MIDAS^AAA; assay: [3H]-gabapentin saturation binding to membranes of tsA-201 cells expressing α2δ-1 MIDAS mutant
Protocol: Cell membrane and DRM fractions were prepared essentially as described previously. Cultured tsA-201 cells were washed twice in ice-cold PBS and then left in ice-cold PBS containing Complete protease inhibitor cocktail (Roche, concentration according to manufacturer’s instructions) for 5 min. Cells were gently washed off the bottom of the flask and pelleted at 2000 × g for 10 min. Pellets were kept on ice if used immediately, or stored at −20 °C until required. For brain membranes, adult male Sprague Dawley rats (200–250 g) were euthanised by CO2 inhalation and then decapitated. The whole brain minus cerebellum was homogenised on ice in a buffer containing the following (in mM): 20 HEPES, pH 7.4, 2 EDTA, EDTA-free protease inhibitor cocktail (Roche, concentration according to manufacturer’s instructions).
For membrane preparation, pellets obtained from cell harvesting, resuspended in ice-cold 10 mM Hepes plus protease inhibitors (pH 7.4), or brain homogenate, were mechanically lysed by 10–15 passages through a 23 gauge needle. Cell debris and non-lysed cells were pelleted for 15 min at 1,000 × g. The supernatant obtained was transferred to a 30 ml thick-walled ultracentrifuge tube (Beckman-Coulter). Membranes were pelleted in an ultracentrifuge (Beckman-Coulter) for 90 min at 60,000 × g, and resuspended as required. Aliquots were used to determine the protein concentration.

[2] = tested on: TSP4-EGF; assay: 3H-gabapentin binding to TSP4-EGF alone (control); conditions: control experiment, data not shown
[3] = tested on: TSP4; assay: 3H-gabapentin binding to membranes of tsA-201 cells expressing only TSP4 (control); conditions: 1 experiment in triplicate
Protocol: Each experiment was carried out in triplicate, and the mean value used for subsequent analysis.
Harvesting of the samples was performed by filtration through GF/B filter papers (Whatman, GE Healthcare) pre-soaked in 0.3% polyethyleneimine solution, in order to reduce non-specific binding to the filter paper. The samples were transferred to the filters by washing the tubes three times with Tris-HCl (100 mM, pH 7.4, Sigma 7–9) using a Brandel Harvester (Brandel). The GF/B filter papers were then cut out and transferred to vials containing 5 ml of scintillant (Liquid scintillant cocktail, Beckman Coulter). Samples were equilibrated for 18 h and then the activity was counted in triplicate in a scintillation counter (Beckman Coulter) for 10 min per sample.

[4] = tested on: synaptogenic domain of TSP2 and α2δ-1; conditions: co-expressed in HEK-293 cells; cited from earlier work
[5] = α2δ-1-MIDAS^AAA + TSP4 with EDTA, n = 3 (Fig. 1F)
[6] = α2δ-1-MIDAS^AAA + TSP4 with Mg2+, n = 3 (Fig. 1F)
[7] = α2δ-1-MIDAS^AAA with EDTA, n = 3 (Fig. 1F)

| SMILES | nH [1] | mean Bmax [1, 5] [pmol/mg protein] | nH [1, 5] | mean Bmax [1, 6] [pmol/mg protein] | nH [1, 6] | mean Bmax [1, 7] [pmol/mg protein] | nH [1, 7] | Kd ([1]; α2δ-1-MIDAS^AAA with Mg2+, n = 2 (Fig. 1F), read-out: KD, individual values) | mean Bmax ([1]; α2δ-1-MIDAS^AAA with Mg2+, n = 2, individual values 0.53, 0.38 (Fig. 1F)) [pmol/mg protein] | binding affinity compared with WT α2δ-1 ([1]; α2δ-1 MIDAS^AAA (Fig. 1F)) | binding to TSP4-EGF alone [2] | binding to TSP4 alone [3] | effect on co-immunoprecipitation between synaptogenic domain of TSP2 and α2δ-1 [4] |
| --- | --- | --- | --- | --- | --- | --- | --- | --- | --- | --- | --- | --- | --- |
| NCC1(CC(=O)O)CCCCC1 [[^3H]-gabapentin] | 1.43 | 0.24 ± 0.02 | 1.49 ± 0.10 | 0.37 ± 0.06 | 1.45 ± 0.05 | 0.68 ± 0.12 | 1.33 ± 0.07 | 117 nM and 190 nM | 0.46 | affinity similar to WT α2δ-1 | no ^3H-gabapentin binding | no direct binding |  |
| NCC1(CC(=O)O)CCCCC1 [gabapentin] |  |  |  |  |  |  |  |  |  |  |  |  | inhibit co-immunoprecipitation |
